The values that follow come from patent publication US20110190336A1, “AZABENZIMIDAZOLONES” (CARA THERAPEUTICS, INC., priority 2008, published 2011).

Structures are written as SMILES.

The assay deals with T1, human DP2 receptor (Homo sapiens, UniProt Q9Y5Y4).
T1 construct: expressed in transfected cells; host or cells: CHO-K1 FLP-In (Invitrogen, catalog no. R758-07), stably transfected
T1 sequence (Q9Y5Y4 1-395): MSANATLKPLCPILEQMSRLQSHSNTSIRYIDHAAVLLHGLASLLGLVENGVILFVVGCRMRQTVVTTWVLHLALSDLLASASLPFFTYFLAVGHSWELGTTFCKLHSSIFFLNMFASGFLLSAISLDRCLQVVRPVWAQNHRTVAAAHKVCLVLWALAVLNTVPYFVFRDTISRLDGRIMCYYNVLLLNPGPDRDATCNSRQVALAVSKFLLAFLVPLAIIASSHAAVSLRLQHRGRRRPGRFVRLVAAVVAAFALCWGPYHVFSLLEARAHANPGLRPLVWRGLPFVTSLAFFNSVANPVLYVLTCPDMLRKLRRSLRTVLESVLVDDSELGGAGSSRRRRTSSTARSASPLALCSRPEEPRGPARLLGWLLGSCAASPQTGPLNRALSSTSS
The assay can be described thus: Prostaglandin D2 binding inhibition assay (scintillation proximity assay, 3H PGD2, membranes of transfected CHO cells). The settings on record: SPA, 5.5 nM 3H PGD2, CHO-K1 FLP-In human DP2 membranes; upper limit determinable 30 μM; read-out: IC50 ranges for inhibition of PGD2 binding to human DP2. The procedure, abridged: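 Membranes (5 μg) from CHO-K1 cells stably expressing human DP2 were mixed with WGA SPA beads and 5.5 nM 3H PGD2 in Tris buffer with 10 mM MgCl2, 100 mM NaCl, 0.1% BSA, plus compound. After 60 min at room temperature, CPM were read; IC50 from two-parameter nonlinear regression.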
(In general: Scintillation proximity formats need no separation of bound from free tracer.)
A word on the IC50: it is the concentration at which inhibition is half-maximal. Take `O=C(O)Cn1c(=O)n(C2CCN(S(=O)(=O)c3ccc(F)c(Cl)c3)CC2)c2ncccc21` [Compound 88, 2-(3-(1-(3-chloro-4-fluorophenyl-sulfonyl)piperidin-4-yl)-2-oxo-2,3-dihydro-1H-imidazo[4,5-b]pyridin-1-yl)acetic acid]: the half-inhibitory concentration (IC50) fell in the range of 1000 to 10000 nM.

For `COc1ccc(S(=O)(=O)N2CCC(n3c(=O)n(CC(=O)O)c4cccnc43)CC2)cc1` [Compound 89, 2-(3-(1-(4-methoxyphenylsulfonyl)piperidin-4-yl)-2-oxo-2,3-dihydro-1H-imidazo[4,5-b]pyridin-1-yl)acetic acid], the IC50 fell in the range of 1000 to 10000 nM.

With `CS(=O)(=O)c1ccc(S(=O)(=O)N2CCC(n3c(=O)n(CC(=O)O)c4cccnc43)CC2)cc1` [Compound 90, 2-(3-(1-(4-(methylsulfonyl)phenyl-sulfonyl)piperidin-4-yl)-2-oxo-2,3-dihydro-1H-imidazo[4,5-b]pyridin-1-yl)acetic acid], the IC50 was over 30000 nM.

With `O=C(O)Cn1c(=O)n(C2CCN(S(=O)(=O)c3cc(F)c(Cl)cc3F)CC2)c2ncccc21` [Compound 91, 2-(3-(1-(4-chloro-2,5-difluoro-phenylsulfonyl)piperidin-4-yl)-2-oxo-2,3-dihydro-1H-imidazo[4,5-b]pyridin-1-yl)acetic acid], the half-inhibitory concentration (IC50) was under 1000 nM.

Take `O=C(O)Cn1c(=O)n(C2CCN(S(=O)(=O)c3cc(F)c(F)cc3F)CC2)c2ncccc21` [Compound 92, 2-(2-oxo-3-(1-(2,4,5-trifluoro-phenylsulfonyl)piperidin-4-yl)-2,3-dihydro-1H-imidazo[4,5-b]pyridin-1-yl)acetic acid]: the IC50 was in the range of 1000 to 10000 nM.

On to `O=C(O)Cn1c(=O)n(C2CCN(S(=O)(=O)c3ccc(F)cc3F)CC2)c2ncccc21` [Compound 93, 2-(3-(1-(2,4-difluorophenyl-sulfonyl)piperidin-4-yl)-2-oxo-2,3-dihydro-1H-imidazo[4,5-b]pyridin-1-yl)acetic acid], for which the IC50 is under 1000 nM.

Turning to `Cc1ccccc1S(=O)(=O)N1CCC(n2c(=O)n(CC(=O)O)c3cccnc32)CC1` [Compound 94, 2-(2-oxo-3-(1-(o-tolylsulfonyl)piperidin-4-yl)-2,3-dihydro-1H-imidazo[4,5-b]pyridin-1-yl)acetic acid], the IC50 was under 1000 nM.

Consider `Cc1cc(S(=O)(=O)N2CCC(n3c(=O)n(CC(=O)O)c4cccnc43)CC2)ccc1F` [Compound 95, 2-(3-(1-(4-fluoro-3-methylphenylsulfonyl)piperidin-4-yl)-2-oxo-2,3-dihydro-1H-imidazo[4,5-b]pyridin-1-yl)acetic acid], for which the IC50 is 1000 to 10000 nM.

Regarding `Cc1c(F)cccc1S(=O)(=O)N1CCC(n2c(=O)n(CC(=O)O)c3cccnc32)CC1` [Compound 96, 2-(3-(1-(3-fluoro-2-methylphenylsulfonyl)piperidin-4-yl)-2-oxo-2,3-dihydro-1H-imidazo[4,5-b]pyridin-1-yl)acetic acid], the IC50 is under 1000 nM.

As to `COc1ccccc1S(=O)(=O)N1CCC(n2c(=O)n(CC(=O)O)c3cccnc32)CC1` [Compound 97, 2-(3-(1-(2-methoxyphenylsulfonyl)piperidin-4-yl)-2-oxo-2,3-dihydro-1H-imidazo[4,5-b]pyridin-1-yl)acetic acid], the concentration for half-maximal inhibition (IC50) lay in the range of 1000 to 10000 nM.

On to `CCCCOc1ccc(S(=O)(=O)N2CCC(n3c(=O)n(CC(=O)O)c4cccnc43)CC2)cc1` [Compound 98, 2-(3-(1-(4-butoxyphenylsulfonyl)piperidin-4-yl)-2-oxo-2,3-dihydro-1H-imidazo[4,5-b]pyridin-1-yl)acetic acid], for which the 50% inhibitory concentration (IC50) is under 1000 nM.

On to `CCOc1ccc(S(=O)(=O)N2CCC(n3c(=O)n(CC(=O)O)c4cccnc43)CC2)cc1` [Compound 99, 2-(3-(1-(4-ethoxyphenylsulfonyl)piperidin-4-yl)-2-oxo-2,3-dihydro-1H-imidazo[4,5-b]pyridin-1-yl)acetic acid], for which the concentration for half-maximal inhibition (IC50) was in the range of 1000 to 10000 nM.

With `CS(=O)(=O)c1ccccc1S(=O)(=O)N1CC[C@@H](n2c(=O)n(CC(=O)O)c3cccnc32)C1` [Compound 100, (R)-2-(3-(1-(2-(methylsulfonyl)phenylsulfonyl)pyrrolidin-3-yl)-2-oxo-2,3-dihydro-1H-imidazo[4,5-b]pyridin-1-yl)acetic acid], the half-inhibitory concentration (IC50) was under 1000 nM.

In the case of `O=C(O)Cn1c(=O)n([C@@H]2CCN(S(=O)(=O)c3ccc(F)cc3Cl)C2)c2ncccc21` [Compound 101, (R)-2-(3-(1-(2-chloro-4-fluorophenylsulfonyl)pyrrolidin-3-yl)-2-oxo-2,3-dihydro-1H-imidazo[4,5-b]pyridin-1-yl)acetic acid], the concentration for half-maximal inhibition (IC50) is under 1000 nM.

In the case of `O=C(O)Cn1c(=O)n([C@@H]2CCN(S(=O)(=O)c3ccc(Cl)cc3Cl)C2)c2ncccc21` [Compound 102, (R)-2-(3-(1-(2,4-dichlorophenylsulfonyl)pyrrolidin-3-yl)-2-oxo-2,3-dihydro-1H-imidazo[4,5-b]pyridin-1-yl)acetic acid], the half-inhibitory concentration (IC50) was under 1000 nM.

In the case of `Cc1ccc(S(=O)(=O)N2CC[C@@H](n3c(=O)n(CC(=O)O)c4cccnc43)C2)c(F)c1` [Compound 103, (R)-2-(3-(1-(2-fluoro-4-methylphenylsulfonyl)pyrrolidin-3-yl)-2-oxo-2,3-dihydro-1H-imidazo[4,5-b]pyridin-1-yl)acetic acid], the IC50 was under 1000 nM.

For the compound `CS(=O)(=O)c1ccccc1S(=O)(=O)NC1CCC(n2c(=O)n(CC(=O)O)c3cccnc32)CC1` (stereo not shown) [Compound 104, 2-(3-(4-(2-(methylsulfonyl)phenylsulfonamido)cyclohexyl)-2-oxo-2,3-dihydro-1H-imidazo[4,5-b]pyridin-1-yl)acetic acid], the IC50 fell in the range of 1000 to 10000 nM.

For the compound `O=C(O)Cn1c(=O)n(C2CCC(NS(=O)(=O)c3ccc(F)cc3Cl)CC2)c2ncccc21` (stereo not shown) [Compound 105, 2-(3-(4-(2-chloro-4-fluorophenylsulfonamido)cyclohexyl)-2-oxo-2,3-dihydro-1H-imidazo[4,5-b]pyridin-1-yl)acetic acid], the IC50 was 1000 to 10000 nM.

For `O=C(O)Cn1c(=O)n(C2CCC(NS(=O)(=O)c3ccc(Cl)cc3Cl)CC2)c2ncccc21` (stereo not shown) [Compound 106, 2-(3-(4-(2,4-dichlorophenylsulfonamido)cyclohexyl)-2-oxo-2,3-dihydro-1H-imidazo[4,5-b]pyridin-1-yl)acetic acid], the IC50 lay within 1000 to 10000 nM.

Turning to `Cc1ccc(S(=O)(=O)NC2CCC(n3c(=O)n(CC(=O)O)c4cccnc43)CC2)c(F)c1` (stereo not shown) [Compound 107, 2-(3-(4-(2-fluoro-4-methylphenylsulfonamido)cyclohexyl)-2-oxo-2,3-dihydro-1H-imidazo[4,5-b]pyridin-1-yl)acetic acid], the IC50 was 1000 to 10000 nM.

As to `CS(=O)(=O)c1ccccc1S(=O)(=O)N1CCC[C@H](n2c(=O)n(CC(=O)O)c3cccnc32)C1` [Compound 108, (S)-2-(3-(1-(2-(methylsulfonyl)phenylsulfonyl)piperidin-3-yl)-2-oxo-2,3-dihydro-1H-imidazo[4,5-b]pyridin-1-yl)acetic acid], the half-inhibitory concentration (IC50) lay within 1000 to 10000 nM.

Take `O=C(O)Cn1c(=O)n([C@H]2CCCN(S(=O)(=O)c3ccc(Cl)cc3Cl)C2)c2ncccc21` [Compound 109, (S)-2-(3-(1-(2,4-dichlorophenylsulfonyl)piperidin-3-yl)-2-oxo-2,3-dihydro-1H-imidazo[4,5-b]pyridin-1-yl)acetic acid]: the concentration for half-maximal inhibition (IC50) was in the range of 1000 to 10000 nM.

In the case of `Cc1ccc(S(=O)(=O)N2CCC[C@H](n3c(=O)n(CC(=O)O)c4cccnc43)C2)c(F)c1` [Compound 110, (S)-2-(3-(1-(2-fluoro-4-methylphenylsulfonyl)piperidin-3-yl)-2-oxo-2,3-dihydro-1H-imidazo[4,5-b]pyridin-1-yl)acetic acid], the IC50 was 1000 to 10000 nM.

Take `CS(=O)(=O)c1ccccc1S(=O)(=O)N1CCC(n2c(=O)n(CC(=O)O)c3cccnc32)C1` (stereo not shown) [Compound 111, 2-(3-(1-(2-(methylsulfonyl)phenylsulfonyl)pyrrolidin-3-yl)-2-oxo-2,3-dihydro-1H-imidazo[4,5-b]pyridin-1-yl)acetic acid]: the IC50 was under 1000 nM.

For the compound `O=C(O)Cn1c(=O)n(C2CCN(S(=O)(=O)c3ccc(Cl)cc3Cl)C2)c2ncccc21` (stereo not shown) [Compound 112, 2-(3-(1-(2,4-dichlorophenylsulfonyl)pyrrolidin-3-yl)-2-oxo-2,3-dihydro-1H-imidazo[4,5-b]pyridin-1-yl)acetic acid], the IC50 lay within 1000 to 10000 nM.

For `CS(=O)(=O)c1ccccc1S(=O)(=O)N1CCC[C@@H](n2c(=O)n(CC(=O)O)c3cccnc32)C1` [Compound 113, (R)-2-(3-(1-(2-(methylsulfonyl)phenylsulfonyl)piperidin-3-yl)-2-oxo-2,3-dihydro-1H-imidazo[4,5-b]pyridin-1-yl)acetic acid], the IC50 was under 1000 nM.

As for `O=C(O)Cn1c(=O)n([C@@H]2CCCN(S(=O)(=O)c3ccc(F)cc3Cl)C2)c2ncccc21` [Compound 114, (R)-2-(3-(1-(2-chloro-4-fluorophenylsulfonyl)piperidin-3-yl)-2-oxo-2,3-dihydro-1H-imidazo[4,5-b]pyridin-1-yl)acetic acid], the IC50 was under 1000 nM.

As to `O=C(O)Cn1c(=O)n([C@@H]2CCCN(S(=O)(=O)c3ccc(Cl)cc3Cl)C2)c2ncccc21` [Compound 115, (R)-2-(3-(1-(2,4-dichlorophenylsulfonyl)piperidin-3-yl)-2-oxo-2,3-dihydro-1H-imidazo[4,5-b]pyridin-1-yl)acetic acid], the IC50 was under 1000 nM.
